Consider 27 molecules from patent US10647713B2 (Nimbus Lakshmi, Inc., priority 2016, dated 2020).

Molecules are shown by their SMILES.

What is called Kd is the constant that tells how readily two partners part at equilibrium.

human TYK2 (JH2domain-pseudokinase), sequence (P29597 556-888): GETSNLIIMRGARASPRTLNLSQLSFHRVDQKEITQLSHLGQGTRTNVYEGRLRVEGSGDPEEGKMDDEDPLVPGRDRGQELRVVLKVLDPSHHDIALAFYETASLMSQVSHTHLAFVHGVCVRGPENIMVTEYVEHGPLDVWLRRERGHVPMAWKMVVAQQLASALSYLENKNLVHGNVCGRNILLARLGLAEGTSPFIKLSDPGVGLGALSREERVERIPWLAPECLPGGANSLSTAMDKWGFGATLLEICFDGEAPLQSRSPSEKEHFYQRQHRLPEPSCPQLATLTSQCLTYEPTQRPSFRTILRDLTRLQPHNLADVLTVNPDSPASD

In this assay the target is human TYK2 (JH2domain-pseudokinase) (Homo sapiens (Human), UniProt P29597). The experiment in a line: TYK2 JH2 Domain Binding Assay (KINOMEscan, DiscoveRx). To be noted: 11-point dilution, duplicate. A digest of the protocol:
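Kd from duplicate 11-point 3-fold dilutions starting at 30,000 nM, fitted by Hill equation with slope fixed at −1. Compounds (final 0.9% DMSO) displace DNA-tagged HEK293-expressed TYK2 JH2 fusion (<0.1 nM) from ligand-coated beads over 1 h at room temperature; eluted kinase read by qPCR.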
`Cc1nc2c(Nc3ccc(C4=NC(C)(C)CS4)cc3S(C)(=O)=O)cc(Nc3cnc(C)c(C)n3)nc2[nH]1` [I-566, N7-(4-(4,4-dimethyl-4,5-dihydrothiazol-2-yl)-2-(methylsulfonyl)phenyl)-N5-(5,6-dimethylpyrazin-2-yl)-2-methyl-3H-imidazo[4,5-b]pyridine-5,7-diamine] displayed an equilibrium dissociation constant (Kd) of 1 to 10 nM.

Regarding `CC1(C)CSC(c2ccc(Nc3cc(NC(=O)C4CC4)nc4[nH]c(C(F)F)nc34)c(S(C)(=O)=O)c2)=N1` [I-567, N-(2-(difluoromethyl)-7-((4-(4,4-dimethyl-4,5-dihydrothiazol-2-yl)-2-(methylsulfonyl)phenyl)amino)-3H-imidazo[4,5-b]pyridin-5-yl)cyclopropanecarboxamide], the Kd lay within 1 to 10 nM.

The molecule `Cc1nc2c(Nc3ccc(C4=NC(C)(C)CS4)cc3S(C)(=O)=O)cc(NC(=O)C3CC3)nc2[nH]1` [I-568, N-(7-((4-(4,4-dimethyl-4,5-dihydrothiazol-2-yl)-2-(methylsulfonyl)phenyl)amino)-2-methyl-3H-imidazo[4,5-b]pyridin-5-yl)cyclopropanecarboxamide] had a Kd of 0.5 to 1 nM.

Consider `Cc1nc2c(Nc3ccc([C@H]4CCCO4)cc3S(C)(=O)=O)cc(Nc3cccc(C#N)n3)nc2[nH]1` [I-569, (R)-6-((2-methyl-7-((2-(methylsulfonyl)-4-(tetrahydrofuran-2-yl)phenyl)amino)-3H-imidazo[4,5-b]pyridin-5-yl)amino)picolinonitrile], for which the Kd was less than 0.1 nM.

In turn, `Cc1nc2c(Nc3ccc([C@@H]4CCCO4)cc3S(C)(=O)=O)cc(Nc3cccc(C#N)n3)nc2[nH]1` [I-570, (S)-6-((2-methyl-7-((2-(methylsulfonyl)-4-(tetrahydrofuran-2-yl)phenyl)amino)-3H-imidazo[4,5-b]pyridin-5-yl)amino)picolinonitrile] displayed a Kd of 0.1 to 0.5 nM.

As for `CS(=O)(=O)c1cc(C2CCC(F)(F)CO2)ccc1Nc1cc(NC(=O)C2CC2)nc2[nH]c(C(F)F)nc12` (stereo not drawn) [I-571, N-(2-(difluoromethyl)-7-((4-(5,5-difluorotetrahydro-2H-pyran-2-yl)-2-(methylsulfonyl)phenyl)amino)-3H-imidazo[4,5-b]pyridin-5-yl)cyclopropanecarboxamide], the Kd was 0.1 to 0.5 nM.

Molecule `Cc1nc2c(Nc3ccc(C4CCC(F)(F)CO4)cc3S(C)(=O)=O)cc(NC(=O)C3CC3)nc2[nH]1` (stereo not drawn) [I-572, N-(7-((4-(5,5-difluorotetrahydro-2H-pyran-2-yl)-2-(methylsulfonyl)phenyl)amino)-2-methyl-3H-imidazo[4,5-b]pyridin-5-yl)cyclopropanecarboxamide] came in with a Kd of 0.1 to 0.5 nM.

The molecule `COc1c(Nc2cc(Nc3cccc(C#N)n3)nc3[nH]c(C)nc23)cccc1-c1nccs1` [I-573, 6-((7-((2-methoxy-3-(thiazol-2-yl)phenyl)amino)-2-methyl-3H-imidazo[4,5-b]pyridin-5-yl)amino)picolinonitrile] showed a Kd of 1 to 10 nM.

As to `COc1c(Nc2cc(Nc3cccc(C#N)n3)nc3[nH]c(C(F)F)nc23)cccc1-c1cnn(C)n1` [I-574, 6-((2-(difluoromethyl)-7-((2-methoxy-3-(2-methyl-2H-1,2,3-triazol-4-yl)phenyl)amino)-3H-imidazo[4,5-b]pyridin-5-yl)amino)picolinonitrile], the Kd lay within 0.1 to 0.5 nM.

As for `Cc1nc2c(Nc3ccc(C4CCCO4)cc3S(C)(=O)=O)cc(Nc3ccc(C(C)C)c(C#N)n3)nc2[nH]1` (stereo not drawn) [I-575, 3-isopropyl-6-((2-methyl-7-((2-(methylsulfonyl)-4-(tetrahydrofuran-2-yl)phenyl)amino)-3H-imidazo[4,5-b]pyridin-5-yl)amino)picolinonitrile], the Kd was 0.1 to 0.5 nM.

Molecule `COc1c(Nc2cc(NC(=O)C3CC3)nc3[nH]c(C(F)F)nc23)ccc(-c2cc(C)n(C)n2)c1F` [I-576, N-(2-(difluoromethyl)-7-((4-(1,5-dimethyl-1H-pyrazol-3-yl)-3-fluoro-2-methoxyphenyl)amino)-3H-imidazo[4,5-b]pyridin-5-yl)cyclopropanecarboxamide] had a Kd greater than 10 nM.

The molecule `COc1c(Nc2cc(NC(=O)C3CC3)nc3[nH]c(C)nc23)ccc(-c2cc(C)n(C)n2)c1F` [I-577, N-(7-((4-(1,5-dimethyl-1H-pyrazol-3-yl)-3-fluoro-2-methoxyphenyl)amino)-2-methyl-3H-imidazo[4,5-b]pyridin-5-yl)cyclopropanecarboxamide] had a Kd greater than 10 nM.

In turn, `Cc1cc(Nc2cc(Nc3ccc(-c4nc(C)sc4C)cc3S(C)(=O)=O)c3nc(C(F)F)[nH]c3n2)nc(C)n1` [I-578, 2-(difluoromethyl)-N5-(2,6-dimethylpyrimidin-4-yl)-N7-(4-(2,5-dimethylthiazol-4-yl)-2-(methylsulfonyl)phenyl)-3H-imidazo[4,5-b]pyridine-5,7-diamine] gave a Kd of 0.1 to 0.5 nM.

In turn, `Cc1cc(Nc2cc(Nc3ccc(-c4nc(C)sc4C)cc3S(C)(=O)=O)c3nc(C)[nH]c3n2)nc(C)n1` [I-579, N5-(2,6-dimethylpyrimidin-4-yl)-N7-(4-(2,5-dimethylthiazol-4-yl)-2-(methylsulfonyl)phenyl)-2-methyl-3H-imidazo[4,5-b]pyridine-5,7-diamine] displayed a Kd of less than 0.1 nM.

`Cc1nc(-c2ccc(Nc3cc(Nc4cnc(C)c(C)n4)nc4[nH]c(C(F)F)nc34)c(S(C)(=O)=O)c2)c(C)s1` [I-580, 2-(difluoromethyl)-N5-(5,6-dimethylpyrazin-2-yl)-N7-(4-(2,5-dimethylthiazol-4-yl)-2-(methylsulfonyl)phenyl)-3H-imidazo[4,5-b]pyridine-5,7-diamine]: the Kd lay within 0.1 to 0.5 nM.

Regarding `Cc1nc2c(Nc3ccc(-c4nc(C)sc4C)cc3S(C)(=O)=O)cc(Nc3cnc(C)c(C)n3)nc2[nH]1` [I-581, N5-(5,6-dimethylpyrazin-2-yl)-N7-(4-(2,5-dimethylthiazol-4-yl)-2-(methylsulfonyl)phenyl)-2-methyl-3H-imidazo[4,5-b]pyridine-5,7-diamine], the Kd lay in the range of 0.1 to 0.5 nM.

Consider `COc1cc(-c2nc(C)c(C)s2)ccc1Nc1cc(NC(=O)C2CC2)nc2[nH]c(C(F)F)nc12` [I-582, N-(2-(difluoromethyl)-7-((4-(4,5-dimethylthiazol-2-yl)-2-methoxyphenyl)amino)-3H-imidazo[4,5-b]pyridin-5-yl)cyclopropanecarboxamide], for which the Kd was greater than 10 nM.

In turn, `Cc1nc2c(Nc3ccc(-c4cc(C)n(C)n4)cc3S(C)(=O)=O)cc(Nc3cccc(C#N)n3)nc2[nH]1` [I-583, 6-((7-((4-(1,5-dimethyl-1H-pyrazol-3-yl)-2-(methylsulfonyl)phenyl)amino)-2-methyl-3H-imidazo[4,5-b]pyridin-5-yl)amino)picolinonitrile] registered a Kd of 0.1 to 0.5 nM.

Take `COCCCc1cnc(-c2ccc(Nc3cc(NC(=O)C4CC4)nc4[nH]c(C(F)F)nc34)c(S(C)(=O)=O)c2)s1` [I-584, N-(2-(difluoromethyl)-7-((4-(5-(3-methoxypropyl)thiazol-2-yl)-2-(methylsulfonyl)phenyl)amino)-3H-imidazo[4,5-b]pyridin-5-yl)cyclopropanecarboxamide]: the dissociation constant Kd fell in the range of 0.1 to 0.5 nM.

`Cc1nc2c(Nc3ccc(-c4cnn(C)c4C)cc3S(C)(=O)=O)cc(Nc3cccc(C(F)(F)F)n3)nc2[nH]1` [I-585, N7-(4-(1,5-dimethyl-1H-pyrazol-4-yl)-2-(methylsulfonyl)phenyl)-2-methyl-N5-(6-(trifluoromethyl)pyridin-2-yl)-3H-imidazo[4,5-b]pyridine-5,7-diamine] showed a Kd of 0.1 to 0.5 nM.

`Cc1nc2c(Nc3ccc([C@H]4CCCCO4)cc3S(C)(=O)=O)cc(Nc3cc4n(n3)CCOC4)nc2[nH]1` [I-587, (R)—N5-(6,7-dihydro-4H-pyrazolo[5,1-c][1,4]oxazin-2-yl)-2-methyl-N7-(2-(methylsulfonyl)-4-(tetrahydro-2H-pyran-2-yl)phenyl)-3H-imidazo[4,5-b]pyridine-5,7-diamine] gave a Kd of 0.1 to 0.5 nM.

`CS(=O)(=O)c1cc(C2COCCO2)ccc1Nc1cc(NC(=O)C2CC2)nc2[nH]c(C(F)F)nc12` (stereo not drawn) [I-588, N-(7-((4-(1,4-dioxan-2-yl)-2-(methylsulfonyl)phenyl)amino)-2-(difluoromethyl)-3H-imidazo[4,5-b]pyridin-5-yl)cyclopropanecarboxamide] gave a Kd of 0.1 to 0.5 nM.

`COc1cc(-c2cc(C)n(C)n2)ccc1Nc1cc(NC(=O)C2CC2)nc2[nH]c(C(F)F)nc12` [I-589, N-(2-(difluoromethyl)-7-((4-(1,5-dimethyl-1H-pyrazol-3-yl)-2-methoxyphenyl)amino)-3H-imidazo[4,5-b]pyridin-5-yl)cyclopropanecarboxamide] came in with an equilibrium dissociation constant (Kd) of 1 to 10 nM.

Consider `COc1cc(-c2cc(C)n(C)n2)ccc1Nc1cc(NC(=O)C2CC2)nc2[nH]c(C)nc12` [I-590, N-(7-((4-(1,5-dimethyl-1H-pyrazol-3-yl)-2-methoxyphenyl)amino)-2-methyl-3H-imidazo[4,5-b]pyridin-5-yl)cyclopropanecarboxamide], for which the Kd lay within 1 to 10 nM.

Turning to `Cc1nc2c(Nc3ccc([C@H]4CCC(C)(C)O4)cc3S(C)(=O)=O)cc(NC(=O)C3CC3)nc2[nH]1` [I-591, (R)—N-(7-((4-(5,5-dimethyltetrahydrofuran-2-yl)-2-(methylsulfonyl)phenyl)amino)-2-methyl-3H-imidazo[4,5-b]pyridineyl)cyclopropanecarboxamide], the Kd was in the range of 0.1 to 0.5 nM.

For `Cc1nc2c(Nc3ccc([C@@H]4CCC(C)(C)O4)cc3S(C)(=O)=O)cc(NC(=O)C3CC3)nc2[nH]1` [I-592, (S)—N-(7-((4-(5,5-dimethyltetrahydrofuran-2-yl)-2-(methylsulfonyl)phenyl)amino)-2-methyl-3H-imidazo[4,5-b]pyridin-5-yl)cyclopropanecarboxamide], the Kd was 0.5 to 1 nM.

As to `CS(=O)(=O)c1cc([C@H]2CCC(F)(F)CO2)ccc1Nc1cc(NC(=O)C2CC2)nc2[nH]c(C(F)F)nc12` [I-593, (R)—N-(2-(difluoromethyl)-7-((4-(5,5-difluorotetrahydro-2H-pyran-2-yl)-2-(methylsulfonyl)phenyl)amino)-3H-imidazo[4,5-b]pyridin-5-yl)cyclopropanecarboxamide], the Kd lay within 1 to 10 nM.
